The term ED50 denotes the dose that gives a 50% effect, or the effect in half of the subjects. A word on the viability: it is a read-out of living cells in per cent, often relative to untreated cells.

In brackets after ≈: the same amount, converted by molar mass. Like-named read-outs stand apart in the source and are kept apart here.

Data on twelve molecules can be found in patent publication US4675337A, “Non-mutagenic 1,2-disubstituted 4-nitro-imidazoles useful as antiprotozoal agents” (priority 1986, dated 1987).

The test system of data set [1] is T. foetus. The data set can be described thus: Trichomonal activity in vitro. The format is cell-based. The settings on record: Tritrichomonas foetus, Table I, read-out: ED50 (T. foetus) in vitro.
Data set [2] concerns T. foetus. The data set can be described thus: Trichomonal activity in vivo: survival of mice infected i.p. with T. foetus. The settings on record: Tritrichomonas foetus, po, 336 h. On the procedure:
Mice were infected through intraperitoneal (I.P.) injection of 1.4×10^7 T. foetus. Each compound disclosed in Table I below was dissolved in an aqueous vehicle, dosed to groups of mice (consisting of five) by gavage. The mice were dosed once per day for four consecutive days with doses ranging from 1-50 mg/kg. The effective dose of the compound, ED50, was calculated from the number of animals surviving a two week period.

Another data set concerns Ames Salmonella TA100. The settings on record: for In vivo Safety Index (rel to flagyl): relative increase in safety (1/mutagenicity) at the ED50 dose, relative to flagyl. The source says:
This test involves the addition to a fermentation medium in which is growing a particular organism identified as Ames Salmonella TA100, and measuring the number of mutant organisms formed.

For a further data set, the system named is Rat hepatocytes. The data set can be described thus: Single strand DNA breaks in rat hepatocytes (elution). Type of data set: cell-based. The settings on record: for Relative Elution Slope: relative to control 1.00, ≥3.0 significant. The source says:
*Measure of the extent of DNA strand cleavage. Only relative elution
slopes ≥3.0 are considered significant. Therefore, […]

Data set [3] in a line: Cytotoxicity in rat hepatocytes. Type of data set: cell-based. Conditions: relative to control cells. The source says:
**Relative viability is the number of hepatocytes surviving exposure to
the nitroimidazoles relative to the control cells.

[4] abbreviates: Table I, gavage once per day for four consecutive days, survival over two weeks, read-out: ED50 (T. foetus) in vivo.
Where [5] appears, read: Table II, read-out: T. foetus In Vivo (ED50).
The mark [6] stands for this setting: Table III, read-out: T. foetus (ED50) In vivo.
Setting [7] is: Table II, relative to ronidazole.

In the case of `CSc1nc([N+](=O)[O-])cn1C` [Compound 7, 1-methyl-2-methylthio-4-nitroimidazole], the IC50 in the data set on T. foetus [1] worked out at 2.1 µg/mL (≈ 12.1 µM). Further, the ED50 with T. foetus [2] (setting [4]) is 5 to 10 mg/kg.

As for `Cn1c([N+](=O)[O-])cnc1COC(N)=O` [Ronidazole, 1-methyl-2-[(carbamoyloxy)methyl]-5-nitroimidazole, reference compound], the ED50 in the data set with T. foetus [2] (setting [5]) was in the range of 2 to 5 mg/kg; in the data set on T. foetus [2] (setting [6]), 5 to 10 mg/kg. The mutants per plate is on record as 358 mutants per plate in the data set with Ames Salmonella TA100 (3 μg per plate) and 2682 mutants per plate with Ames Salmonella TA100 (30 μg per plate). In addition, the “In vivo Safety Index (rel to flagyl)” value with Ames Salmonella TA100 (Table II) was 0.7. In addition, the Mutagenicity turned out to be 100 percent Ronidazole with Ames Salmonella TA100 (setting [7]) and 100.0 percent ronidazole in the data set with Ames Salmonella TA100 (Table III, Ames TA100 strain).

For the molecule `CCCS(=O)(=O)c1nc([N+](=O)[O-])cn1C` [Compound 3, 1-methyl-2-propylsulfonyl-4-nitroimidazole], in the data set with T. foetus [1], the IC50 is 27 µg/mL (≈ 116 µM). Further, the ED50 with T. foetus [2] (setting [4]) and in the data set on T. foetus [2] (setting [6]) was 5 to 10 mg/kg in each case. This molecule also registered a Mutagenicity in the data set with Ames Salmonella TA100 (Table III, Ames TA100 strain) of 0.1 percent ronidazole.

With `CC(C)S(=O)(=O)c1nc([N+](=O)[O-])cn1C` [Compound 4, 1-methyl-2-isopropylsulfonyl-4-nitroimidazole], the IC50 with T. foetus [1] came out at 21 µg/mL (≈ 90 µM). Further, the ED50 in the data set on T. foetus [2] (setting [4]) and with T. foetus [2] (setting [6]) was 5 to 10 mg/kg throughout. The molecule also yielded a Mutagenicity in the data set with Ames Salmonella TA100 (Table III, Ames TA100 strain) of 0.1 percent ronidazole.

Turning to `CCSc1nc([N+](=O)[O-])cn1C` [Compound 8, 1-methyl-2-ethylthio-4-nitroimidazole], the IC50 in the data set on T. foetus [1] worked out at 2.3 µg/mL (≈ 12.3 µM). Also, the ED50 in the data set with T. foetus [2] (setting [4]) and with T. foetus [2] (setting [5]) was 2 mg/kg in each case. The mutants per plate entry is given as “indistinguishable from background” in the data set with Ames Salmonella TA100 (3 μg per plate), “indistinguishable from background” in the data set with Ames Salmonella TA100 (30 μg per plate), 30 mutants per plate in the data set on Ames Salmonella TA100 (100 μg per plate) and 65 mutants per plate in the data set with Ames Salmonella TA100 (300 μg per plate). The “mutagenicity (conclusion in words)” value with Ames Salmonella TA100 (Ames test) is “non-mutagenic”. Moreover, the “In vivo Safety Index (rel to flagyl)” value in the data set on Ames Salmonella TA100 (Table II) is listed as over 1750. In the data set on Ames Salmonella TA100 (setting [7]), this molecule came in with a Mutagenicity of under 0.1 percent Ronidazole. The “Relative Elution Slope” value is on record as 1.33 in the data set on Rat hepatocytes (0.5 mM), 1.23 in the data set on Rat hepatocytes (1.5 mM) and 1.60 with Rat hepatocytes (5.0 mM). In addition, the “significant DNA strand breakage (in words)” value in the data set on Rat hepatocytes (up to 5.0 mM) is “did not cause significant DNA strand”. Besides, the viability at 500 µM in data set [3] (0.5 mM) stood at 107%. Further, the viability at 1500 µM in data set [3] (1.5 mM) was 105%. Also, the viability at 5000 µM in data set [3] (5.0 mM) came to 102%.

Take `CC(C)Sc1nc([N+](=O)[O-])cn1C` [Compound 10, 1-methyl-2-isopropylthio-4-nitroimidazole]: in the data set on T. foetus [1], the IC50 was 4 µg/mL (≈ 19.9 µM). Further, the ED50 in the data set with T. foetus [2] (setting [4]) was in the range of 10 to 50 mg/kg.

Consider `CCCSc1nc([N+](=O)[O-])cn1C` [Compound 9, 1-methyl-2-propylthio-4-nitroimidazole], for which, in the data set with T. foetus [1], the IC50 was found to be 4 µg/mL (≈ 19.9 µM). Also, in the data set with T. foetus [2] (setting [4]), the ED50 came to 5 mg/kg.

As for `Cn1cc([N+](=O)[O-])nc1S(=O)(=O)c1ccccc1` [Compound 5, 1-methyl-2-phenylsulfonyl-4-nitroimidazole], in the data set with T. foetus [1], the IC50 worked out at 17 µg/mL (≈ 63.6 µM). For the same molecule, the median effective dose (ED50) with T. foetus [2] (setting [4]) and in the data set on T. foetus [2] (setting [6]) was 10 to 25 mg/kg throughout. In the data set with Ames Salmonella TA100 (Table III, Ames TA100 strain), this molecule displayed a Mutagenicity of 0.1 percent ronidazole.

Turning to `CCS(=O)(=O)c1nc([N+](=O)[O-])cn1C` [Compound 2, 1-methyl-2-ethylsulfonyl-4-nitroimidazole], the IC50 with T. foetus [1] was found to be 18.5 µg/mL (≈ 84.4 µM). Besides, the ED50 with T. foetus [2] (setting [4]) and in the data set on T. foetus [2] (setting [6]) was 2 to 5 mg/kg each time. The Mutagenicity with Ames Salmonella TA100 (Table III, Ames TA100 strain) is on record as 0.1 percent ronidazole.

Turning to `CCn1cc([N+](=O)[O-])nc1S(C)(=O)=O` [Compound 1], the IC50 in the data set with T. foetus [1] worked out at 25 µg/mL (≈ 114 µM). For the same molecule, in the data set on T. foetus [2] (setting [4]), the ED50 was 10 to 50 mg/kg.

`Cc1ncc([N+](=O)[O-])n1CCO` [Flagyl, 1-(2-hydroxyethyl)-2-methyl-5-nitro-imidazole, reference compound]: the IC50 with T. foetus [1] came to 0.4 µg/mL (≈ 2.34 µM). Besides, the ED50 was 25 to 50 mg/kg in the data set on T. foetus [2] (setting [4]), 50 mg/kg with T. foetus [2] (setting [5]) and 25 to 50 mg/kg in the data set on T. foetus [2] (setting [6]). Besides, the “DNA strand breaks (in words)” value with Rat hepatocytes (at both 3.0 and 10.0 mM) is on record as “caused breaks”. In data set [3] (3.0 mM), the viability at 3000 µM stood at 107%. Further, in data set [3] (10.0 mM), the viability at 10000 µM came to 101%.

For `Cn1cc([N+](=O)[O-])nc1[S+](C)[O-]` (stereo not drawn) [Compound 6, 1-methyl-2-methylsulfinyl-4-nitroimidazole], the IC50 in the data set with T. foetus [1] came to 14 µg/mL (≈ 74 µM). Further, the ED50 in the data set with T. foetus [2] (setting [4]) was 2 to 5 mg/kg.
